In US9096591B2, “Tetracyclic compounds” (Medivation Technologies, Inc., priority 2007, dated 2015):

What was measured:
[1] = biological target: T1, human recombinant adrenergic α1D receptor (Homo sapiens, UniProt P25100); test: Adrenergic α1D radioligand binding ([3H]Prozosin); design: Inhibition of ligand binding, Adren. alpha1D: concentration or dose not given beside the values; conditions: percent inhibition of specific binding
T1 construct: expressed in transfected cells; host or cells: HEK-293 cells
T1 sequence (P25100 1-572): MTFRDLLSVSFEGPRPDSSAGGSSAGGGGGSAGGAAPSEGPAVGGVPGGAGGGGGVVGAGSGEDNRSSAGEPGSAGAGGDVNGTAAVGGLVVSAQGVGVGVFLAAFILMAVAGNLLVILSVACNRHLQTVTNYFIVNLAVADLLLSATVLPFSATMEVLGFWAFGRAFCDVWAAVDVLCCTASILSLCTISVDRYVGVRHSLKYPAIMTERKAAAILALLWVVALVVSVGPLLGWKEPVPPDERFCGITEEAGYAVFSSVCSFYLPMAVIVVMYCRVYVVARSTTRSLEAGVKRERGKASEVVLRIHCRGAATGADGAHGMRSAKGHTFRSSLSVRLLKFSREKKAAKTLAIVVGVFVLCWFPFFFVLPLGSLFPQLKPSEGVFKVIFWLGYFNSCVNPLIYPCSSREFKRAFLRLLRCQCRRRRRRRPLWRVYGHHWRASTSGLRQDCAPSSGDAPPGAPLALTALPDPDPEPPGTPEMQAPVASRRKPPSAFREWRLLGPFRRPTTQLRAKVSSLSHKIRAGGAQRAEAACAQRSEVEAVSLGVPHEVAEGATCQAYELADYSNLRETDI
Procedure: Compounds of invention were incubated with 0.6 nM [^3H]Prozosin for 60 minutes at 25° C. Non-specific binding was estimated in the presence of 10 μM phentolamine. Receptor proteins were filtered and washed, the filters were then counted to determine [^3H]Prozosin specifically bound. […] Biochemical assay results are presented as the percent inhibition of specific binding in Table 6.

[2] = biological target: T2, human recombinant dopamine D2L receptor (Homo sapiens, UniProt P14416); test: Dopamine D2L radioligand binding ([3H]Spiperone); conditions: percent inhibition of specific binding
T2 construct: expressed in transfected cells; host or cells: CHO cells
Procedure: Non-specific binding was estimated in the presence of 10 μM Haloperidol. Receptor proteins were filtered and washed, the filters were then counted to determine [^3H]Spiperone specifically bound. […] Biochemical assay results are presented as the percent inhibition of specific binding in Table 6.

[3] = biological target: T3, human recombinant serotonin (5-Hydroxytryptamine) 5-HT2A receptor (Homo sapiens, UniProt P28223); test: Serotonin 5-HT2A radioligand binding ([3H]Ketanserin); design: Inhibition of ligand binding, Ser. 5-HT2A: concentration or dose not given beside the values; conditions: for Inhibition of ligand binding, Ser. 5-HT2A: percent inhibition of specific binding
T3 construct: expressed in transfected cells; host or cells: CHO-K1 cells
Procedure: (§1) Compounds of the invention were incubated with 0.5 nM [^3H]Ketanserin for 60 minutes at 25° C. Non-specific binding was estimated in the presence of 1 μM Mianserin. Receptor proteins were filtered and washed, the filters were then counted to determine [^3H]Ketanserin specifically bound. […] Biochemical assay results are presented as the percent inhibition of specific binding in Table 6.

[4] = biological target: T4, human recombinant serotonin (5-Hydroxytryptamine) 5-HT2C receptor (Homo sapiens, UniProt P28335); test: Serotonin 5-HT2C radioligand binding ([3H]Mesulergine); design: Inhibition of ligand binding, Ser. 5-HT2C: concentration or dose not given beside the values; conditions: percent inhibition of specific binding
T4 construct: expressed in transfected cells; host or cells: CHO-K1 cells
T4 sequence (P28335 33-458): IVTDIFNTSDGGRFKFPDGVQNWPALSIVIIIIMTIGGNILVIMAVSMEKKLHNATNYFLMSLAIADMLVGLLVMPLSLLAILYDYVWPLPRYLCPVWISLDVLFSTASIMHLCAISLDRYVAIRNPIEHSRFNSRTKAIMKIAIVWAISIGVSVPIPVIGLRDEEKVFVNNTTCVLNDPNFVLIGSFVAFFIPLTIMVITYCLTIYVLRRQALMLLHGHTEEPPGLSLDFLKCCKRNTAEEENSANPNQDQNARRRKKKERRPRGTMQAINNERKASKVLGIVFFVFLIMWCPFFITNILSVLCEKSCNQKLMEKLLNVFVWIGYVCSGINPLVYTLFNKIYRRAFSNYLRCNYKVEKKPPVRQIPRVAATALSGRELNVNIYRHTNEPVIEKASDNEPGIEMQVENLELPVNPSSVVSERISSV
Procedure: as §1, with “1” for “0.5”, “[^3H]Mesulergine” for “[^3H]Ketanserin”

T3 sequence (P28223 whole entry): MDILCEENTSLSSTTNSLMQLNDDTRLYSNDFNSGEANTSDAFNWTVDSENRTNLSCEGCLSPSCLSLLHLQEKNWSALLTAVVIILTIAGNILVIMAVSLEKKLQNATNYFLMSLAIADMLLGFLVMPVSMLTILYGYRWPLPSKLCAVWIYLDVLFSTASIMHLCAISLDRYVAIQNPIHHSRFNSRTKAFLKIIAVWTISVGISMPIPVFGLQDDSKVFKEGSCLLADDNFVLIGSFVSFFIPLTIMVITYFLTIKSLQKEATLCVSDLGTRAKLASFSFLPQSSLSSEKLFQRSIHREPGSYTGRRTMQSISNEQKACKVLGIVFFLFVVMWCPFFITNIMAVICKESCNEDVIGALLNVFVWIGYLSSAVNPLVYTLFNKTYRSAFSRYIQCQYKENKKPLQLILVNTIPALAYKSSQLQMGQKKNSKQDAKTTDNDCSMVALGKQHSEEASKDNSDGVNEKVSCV
T2 sequence (P14416 whole entry): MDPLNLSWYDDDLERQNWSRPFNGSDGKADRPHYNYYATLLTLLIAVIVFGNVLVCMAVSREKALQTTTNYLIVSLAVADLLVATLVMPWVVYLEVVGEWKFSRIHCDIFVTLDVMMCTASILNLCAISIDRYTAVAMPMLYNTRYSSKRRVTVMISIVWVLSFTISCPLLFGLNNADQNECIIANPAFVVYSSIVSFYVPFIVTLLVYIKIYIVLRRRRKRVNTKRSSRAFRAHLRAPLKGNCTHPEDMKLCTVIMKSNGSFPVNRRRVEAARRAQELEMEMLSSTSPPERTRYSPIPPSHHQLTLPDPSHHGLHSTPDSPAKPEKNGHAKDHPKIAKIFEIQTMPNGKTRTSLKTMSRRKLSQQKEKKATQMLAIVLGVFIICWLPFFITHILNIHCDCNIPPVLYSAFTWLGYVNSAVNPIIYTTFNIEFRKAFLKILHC

SMILES	Inhibition of ligand binding, Adren. alpha1D [1]	Inhibition of ligand binding, Dop. D2L [2]	Inhibition of ligand binding, Ser. 5-HT2C [4]	Inhibition of ligand binding, Ser. 5-HT2A [3]	inhibition at 0.001 µM ([3]; read-out: Inhibition of ligand binding, Ser. 5-HT2A)
Cc1ccc2c(c1)c1c(n2CCc2ccccn2)CCN(C)C1 [Compound 21, 2,3,4,5-tetrahydro-2,8-dimethyl-5-(2-(pyridin-2-yl)ethyl)-1H-pyrido[4,3-b]indole]	76%	–	87%	94%	–
Cc1ccc(CCn2c3c(c4cc(C)ccc42)CN(C)CC3)cc1 [Compound 25, 2,3,4,5-tetrahydro-2,8-dimethyl-5-(4-methylphenethyl)-1H-pyrido[4,3-b]indole]	–	94%	99%	93%	–
CCN1CCc2c(c3cc(C)ccc3n2CCc2ccncc2)C1 [Compound 27, 2-ethyl-2,3,4,5-tetrahydro-8-methyl-5-(2-(pyridin-4-yl)ethyl)-1H-pyrido[4,3-b]indole]	63%	–	29%	63%	–
Cc1ccc2c(c1)c1c(n2CCc2ccc(C)nc2)CCNC1 [Compound 230, 2,3,4,5-tetrahydro-8-methyl-5-(2-(6-methylpyridin-3-yl)ethyl)-1H-pyrido[4,3-b]indole]	75%	–	36%	33%	–
COc1ccc(CCn2c3c(c4cc(C)ccc42)CN(C)CC3)cc1 [Compound 247]	95%	87%	93%	–	22%
Cc1ccc2c(c1)c1c(n2CCc2ccc(CO)nc2)CCN(C)C1 [Compound 267]	92%	21%	76%	73%	–
CCOC(=O)c1ccc(CCn2c3c(c4cc(C)ccc42)CN(C)CC3)cn1 [Compound 275, ethyl 5-(2-(1,2,3,4-tetrahydro-2,8-dimethylpyrido[4,3-b]indol-5-yl)ethyl)pyridine-2-carboxylate]	87%	4%	31%	39%	–
CN1CCc2c(c3cc(Cl)ccc3n2CC(=O)N2CCS(=O)(=O)CC2)C1 [Compound 295]	4%	−7%	−19%	0%	–
CN1CCc2c(c3cc(Cl)ccc3n2CC(=O)N2CC[S+]([O-])CC2)C1 [Compound 296, 2-(8-Chloro-2-methyl-1,2,3,4-tetrahydro-pyrido[4,3-b]indol-5-yl)-1-(1-oxo-1l4-thiomorpholin-4-yl)-ethanone]	3%	3%	2%	11%	–
Cc1ccc2c(c1)c1c(n2CCc2cnc(C)cn2)CCN(C)C1 [Compound 322, 2,8-dimethyl-5-(2-(5-methylpyrazin-2-yl)ethyl)-2,3,4,5-tetrahydro-1H-pyrido[4,3-b]indole]	66%	5%	69%	64%	–

Further lines, with some results ahead:

Inhibition of ligand binding, Adren. alpha1D [1]	Inhibition of ligand binding, Dop. D2L [2]	Inhibition of ligand binding, Ser. 5-HT2C [4]	SMILES	Inhibition of ligand binding, Ser. 5-HT2A [3]	inhibition at 0.001 µM ([3]; read-out: Inhibition of ligand binding, Ser. 5-HT2A)
94%	87%	98%	Cc1ccc2c(c1)c1c(n2CCc2ccccc2)CCN(C)C1 [Compound 20, 2,3,4,5-tetrahydro-2,8-dimethyl-5-phenethyl-1H-pyrido[4,3-b]indole]	98%	–
10%	1%	54%	CN1CCc2c(c3cc(Cl)ccc3n2CC(=O)N2CCCCC2)C1 [Compound 236, 2-(8-chloro-1,2,3,4-tetrahydro-2-methylpyrido[4,3-b]indol-5-yl)-1-(piperidin-1-yl)ethanone]	–	–
14%	−1%	36%	CC1CCN(C(=O)Cn2c3c(c4cc(Cl)ccc42)CN(C)CC3)CC1 [Compound 237, 2-(8-chloro-1,2,3,4-tetrahydro-2-methylpyrido[4,3-b]indol-5-yl)-1-(4-methylpiperidin-1-yl)ethanone]	–	–
2%	−1%	20%	CN1CCc2c(c3cc(Cl)ccc3n2CC(=O)N2CCOCC2)C1 [Compound 238, 2-(8-chloro-1,2,3,4-tetrahydro-2-methylpyrido[4,3-b]indol-5-yl)-1-morpholinoethanone]	–	–
3%	−1%	65%	CN1CCc2c(c3cc(Cl)ccc3n2CC(=O)N2CCSCC2)C1 [Compound 239, 2-(8-chloro-1,2,3,4-tetrahydro-2-methylpyrido[4,3-b]indol-5-yl)-1-thiomorpholinoethanone]	–	–
42%	9%	27%	CN1CCc2c(c3cc(Cl)ccc3n2CCC(=O)N2CCCC2)C1 [Compound 240, 3-(8-chloro-1,2,3,4-tetrahydro-2-methylpyrido[4,3-b]indol-5-yl)-1-(pyrrolidin-1-yl)propan-1-one]	–	–
8%	8%	33%	CN1CCc2c(c3cc(Cl)ccc3n2CC(=O)N2CCCC2)C1 [Compound 243, 2-(8-chloro-1,2,3,4-tetrahydro-2-methylpyrido[4,3-b]indol-5-yl)-1-(pyrrolidin-1-yl)ethanone]	–	–
12%	6%	22%	CN1CCc2c(c3cc(Cl)ccc3n2CC(=O)N2CCNCC2)C1 [Compound 244]	–	–
1%	4%	20%	CC1CN(C(=O)Cn2c3c(c4cc(Cl)ccc42)CN(C)CC3)CC(C)N1 (stereo not shown) [Compound 245]	–	–
12%	1%	59%	CN1CCc2c(c3cc(Cl)ccc3n2CC(=O)N2CCNC(=O)C2)C1 [Compound 246]	–	–
15%	0%	11%	CC(=O)N1CCN(C(=O)Cn2c3c(c4cc(Cl)ccc42)CN(C)CC3)CC1 [Compound 297, 1-(4-Acetyl-piperazin-1-yl)-2-(8-chloro-2-methyl-1,2,3,4-tetrahydro-pyrido[4,3-b]indol-5-yl)-ethanone]	–	–
4%	−1%	61%	CC1CCCCN1C(=O)Cn1c2c(c3cc(Cl)ccc31)CN(C)CC2 (stereo not shown) [Compound 321, 2-(8-chloro-1,2,3,4-tetrahydro-2-methylpyrido[4,3-b]indol-5-yl)-1-(2-methylpiperidin-1-yl)ethanone]	–	–
